Laboratory results from patent publication US20250144172A1, “ANTI-FIBROTIC SIALIDASE INHIBITOR COMPOUNDS AND METHODS OF USE” (The Texas A&M University System, priority 2016, published 2025).
Like-named read-outs stand apart in the source and are kept apart here.

Tests used:
human sialidases = settings: all four human sialidases; carboxylate form; cited from earlier work
murine sialidases = settings: mice, cited from earlier work
[1] = test system: mice with bleomycin-induced fibrosis; assay: mouse bleomycin model of pulmonary fibrosis; format: in vivo; settings: day 21
Procedure: The successful aspiration of bleomycin into the lungs was confirmed by listening for a crackling noise heard after the aspiration. Mice were weighed daily, and euthanized using CO2 following NIH guidelines at day 21 after bleomycin aspiration. The experiment was performed in accordance with the recommendations in the Guide for the Care and Use of Laboratory Animals of the National Institutes of Health. The Texas A&M University Animal Use and Care Committee approved the protocol.
The BALs were clarified by centrifugation at 500×g for 10 minutes, and the supernatants were transferred to Eppendorf tubes. The supernatants were flash frozen with liquid nitrogen, and stored at −20° C. until further use.
After collection of BAL fluid, mouse lungs were inflated with prewarmed Optimal Cutting Temperature (OCT) embedding medium (VWR, Radnor, PA) and then embedded in OCT, frozen on dry ice, and then stored at −80° C. 6-micron cryosections of mouse lungs were mounted on Superfrost Plus® microscope slides (VWR). The sections on the slides were allowed to air-dry for 24-48 hours. The slides were then fixed in acetone at room temperature for 20 minutes and air-dried for 10 minutes.
Then, starting 24 hours after bleomycin had been administered, the mice were given daily intraperitoneal injections of 10 mg/kg DANA (Calbiochem) in PBS or 10 mg/kg oseltamivir (Sigma) in PBS. Both inhibitors are quite polar and thus probably remain in the extracellular space. Assuming 2 ml of extracellular space in a 20 gram mouse, these doses would then be ˜3 μM. At day 21, mice were sacrificed and BAL and cryosections of lungs were obtained as described for Example 3. The experiment was performed in accordance with the recommendations in the Guide for the Care and Use of Laboratory Animals of the National Institutes of Health. The Texas A&M University Animal Use and Care Committee approved the protocol.
Treatment of mice with oropharyngeal bleomycin results in an initial inflammation, and then a fibrosis that has begun by day 10 after bleomycin treatment. To determine if sialidase inhibitors decrease fibrosis when treatment starts after the initial inflammation stage and when fibrosis is present, mice were treated with oropharyngeal bleomycin to induce symptoms of pulmonary fibrosis as described above. Then, starting 10 days after bleomycin had been administered, the mice were given daily intraperitoneal injections of 10 mg/kg DANA (Calbiochem) in PBS or 10 mg/kg oseltamivir (Sigma) in PBS. At day 21, mice were sacrificed and BAL and cryosections of lungs were obtained as described above. The experiment was performed in accordance with the recommendations in the Guide for the Care and Use of Laboratory Animals of the National Institutes of Health. The Texas A&M University Animal Use and Care Committee approved the protocol.
To determine if sialidase inhibitors could also reduce TGF-β1 levels in mice, mice were treated with bleomycin or saline, then injected daily with saline, DANA or oseltamivir starting at day 10 after bleomycin treatment, as described in Example 9. The mice were euthanized at day 21 and sections of lung tissue were stained for TGF-β1. Results are presented in FIG. 11A and are representative of results for three mice per group.

[2] = target: LPS-induced mouse macrophage sialidase activity; settings: cited from earlier work
human PBMC = assay: TGF-β1 accumulation by human PBMC (antibody staining and ELISA); format: cell-based; settings: inhibitor 3 μM; sialidases 200 ng/ml; 5 days; ELISA
Procedure: To determine if sialidases might cause cells to accumulate intracellular and extracellular TGF-β1, human PBMC were cultured with sialidases in 96 well plates at 5×10^5 cells/ml and 200 μl/well in FibroLife serum-free medium for five days, then air dried. The levels of TGF-β1 in or on the cells was detected by staining with an antibody against TGF-β1. Photomicrographs were analyzed by counting stained cells (FIG. 7B) and quantifying staining intensity using ImageJ (FIG. 7C).
PBMC were cultured in 96 well plates at 5×10^5 cells/ml and 200 μl/well in FibroLife serum-free medium. When the cells were plated, recombinant human sialidases were added to final concentrations of 200 ng/ml, and DANA or oseltamivir were added to 3 μM. After 5 days, culture supernatants were analyzed using a TGF-β1 ELISA kit (R&D Systems).

[3] = 10 mg/kg daily i.p. starting at day 10

**Q.** For CCC(CC)[C@H](NC(C)=O)[C@@H]1[C@H](O)[C@@H](C(=O)O)C[C@H]1N=C(N)N [Compound 58, (1S,2S,3S,4R)-3-[(1S)-1-acetamido-2-ethyl-butyl]-4-(diaminomethylideneamino)-2-hydroxy-cyclopentane-1-carboxylic acid], which “inhibitor of human sialidases” value (human sialidases) is on record?
**A.** poor inhibitor

**Q.** And the “inhibitor of murine sialidases” value (murine sialidases; listed as Oseltamivir)?
**A.** potent sialidase inhibitor in mice

**Q.** And the “inhibitor of murine sialidases” value (murine sialidases; listed as oseltamivir)?
**A.** potent inhibitor

**Q.** What about the “collagen deposition in the lungs (Sirius red)” value ([1]; 10 mg/kg daily i.p. starting 24 hours after bleomycin) of the same compound?
**A.** reduced

**Q.** What about the “collagen deposition in the lungs (Sirius red)” value [1, 3] of the same compound?
**A.** reduced

**Q.** What about the “total protein in BAL” value [1, 3] of the same compound?
**A.** attenuated

**Q.** What about the “TGF-β1 levels in lung tissue (staining)” value ([1]; daily injection starting at day 10) of the same compound?
**A.** reduced TGF-β1 levels

**Q.** And the IC50 [2]?
**A.** 1000 nM

**Q.** And the “effects of NEU2 and NEU3 on extracellular TGF-β1” value (human PBMC)?
**A.** blocked
